Experiments:
[1] = molecular target: T1, human LXRβ (Homo sapiens, UniProt P55055); experiment: Ligand-binding test procedure for human LXRβ (3H T0901317 competition, flash plates); conditions: for Binding ratio a/b: IC50 (μM) LXRα binding/IC50 (μM) LXRβ binding; for IC50: biotinylated hLXRβ, tracer 3H T0901317
T1 construct: biotin (biotinylated; biotinylation tag not described); made in house; host or cells: E. coli
T1 sequence (P55055 1-460): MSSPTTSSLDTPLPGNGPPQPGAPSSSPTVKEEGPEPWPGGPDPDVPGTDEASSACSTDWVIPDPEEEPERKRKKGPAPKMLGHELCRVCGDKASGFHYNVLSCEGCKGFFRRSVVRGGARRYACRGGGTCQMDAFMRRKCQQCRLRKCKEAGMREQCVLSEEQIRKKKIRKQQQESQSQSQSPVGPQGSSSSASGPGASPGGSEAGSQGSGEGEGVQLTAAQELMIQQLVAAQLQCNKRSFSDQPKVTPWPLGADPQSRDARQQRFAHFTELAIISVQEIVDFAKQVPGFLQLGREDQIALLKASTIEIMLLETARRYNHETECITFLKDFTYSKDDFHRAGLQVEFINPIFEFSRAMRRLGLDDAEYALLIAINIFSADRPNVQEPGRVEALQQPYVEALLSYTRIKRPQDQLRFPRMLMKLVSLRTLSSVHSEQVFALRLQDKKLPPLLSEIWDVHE
Experimental: Ligand-Binding Test Procedure for Human LXRβ.
Receptor source: E. coli extract from cells expressing biotinylated hLXRβ. Extract was made in a similar buffer as above, but with 50 mM TRIS.
(§1) Washed streptavidin and coated flash plates with wash buffer.
(§2) Diluted receptor extract to give Bmax ˜4000 cpm and add to the wells.
(§3) Wrapped the plates in aluminum foil and stored them at +4° C. over night.
(§4) Made a dilution series in DMSO of the test ligands.
(§5) Made a 5 nM solution of the radioactive tracer in buffer.
(§6) Mixed 250 μl diluted tracer with 5 μl of the test ligand from each concentration of the dilution series.
(§7) Washed the receptor-coated flash plates.
(§8) Added 200 μl per well of the ligand/radiolabel mixture to the receptor-coated flash plates.
(§9) Wrapped the plates in aluminum foil and incubate at +4° C. over night.
(§10) Aspirated wells, and wash the flashed plates. Sealed the plate.
(§11) Measured the remaining radioactivity in the plate.

[2] = molecular target: T2, human LXRα (Homo sapiens, UniProt Q13133); experiment: Ligand-binding test procedure for human LXRα (3H T0901317 competition, flash plates); conditions: biotinylated hLXRα, tracer 3H T0901317
T2 construct: biotin (biotinylated; biotinylation tag not described); made in house; host or cells: E. coli
T2 sequence (Q13133 1-447): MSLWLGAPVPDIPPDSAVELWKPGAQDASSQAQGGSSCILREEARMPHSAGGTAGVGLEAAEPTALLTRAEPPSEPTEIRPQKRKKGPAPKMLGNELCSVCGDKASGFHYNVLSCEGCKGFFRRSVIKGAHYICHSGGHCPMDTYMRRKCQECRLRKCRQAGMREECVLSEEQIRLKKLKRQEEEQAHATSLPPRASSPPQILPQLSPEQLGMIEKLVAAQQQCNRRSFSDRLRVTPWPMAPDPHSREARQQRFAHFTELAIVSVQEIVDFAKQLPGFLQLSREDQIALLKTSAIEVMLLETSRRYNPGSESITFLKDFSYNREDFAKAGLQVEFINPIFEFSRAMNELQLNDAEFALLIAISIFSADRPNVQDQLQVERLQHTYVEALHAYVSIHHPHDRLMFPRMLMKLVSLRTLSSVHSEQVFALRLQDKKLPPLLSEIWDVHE
Experimental: Ligand-Binding Test Procedure for Human LXRα.
Receptor source: E. coli extract from cells expressing biotinylated hLXRα. Extract was made in a similar buffer as above, but with 50 mM TRIS.
as §1, §2, §3, §4, §5, §6, §7, §8, §9, §10, §11

Q: How did the Binding ratio a/b [1] turn out when `O=C(O)[C@@H]1CCCN1C(=O)c1cccc(COc2cccc(-c3c(Cc4ccccc4)cnc4c(C(F)(F)F)cccc34)c2)c1` [Example 59, 1-[3-({3-[3-benzyl-8-(trifluoromethyl)quinolin-4-yl]phenoxy}methyl)benzoyl]proline] was run?
A: The Binding ratio a/b was 5.

Q: What about the IC50 [1] of the same compound?
A: The IC50 was 0.098 µM.

Q: And the IC50 [2]?
A: Its IC50 is 0.467 µM.

Q: With `O=C(O)C1CCN(C(=O)c2ccc(COc3cccc(-c4c(Cc5ccccc5)cnc5c(C(F)(F)F)cccc45)c3)cc2)CC1` [Example 60, 1-[4-({3-[3-benzyl-8-(trifluoromethyl)quinolin-4-yl]phenoxy}methyl)benzoyl]piperidine-4-carboxylic acid] as the compound, how does the Binding ratio a/b [1] read?
A: Its Binding ratio a/b is 5.

Q: And the IC50 [1]?
A: The IC50 was 0.038 µM.

Q: What about the IC50 [2] of the same compound?
A: Its IC50 is 0.178 µM.

Q: `O=C(N[C@@H](Cc1c[nH]cn1)C(=O)O)c1ccc(COc2cccc(-c3c(Cc4ccccc4)cnc4c(C(F)(F)F)cccc34)c2)cc1` [Example 61, N-[4-({3-[3-benzyl-8-(trifluoromethyl)quinolin-4-yl]phenoxy}methyl)benzoyl]histidine] was tested. Which Binding ratio a/b [1] did it give?
A: The Binding ratio a/b was 5.

Q: What about the IC50 [1] of the same compound?
A: Its IC50 is 0.145 µM.

Q: What about the IC50 [2] of the same compound?
A: The IC50 was 0.681 µM.

Q: How did the Binding ratio a/b [1] turn out when `Cc1ccc(CC(=O)O)cc1OCc1cccc(-c2c(Cc3ccccc3)cnc3c(C(F)(F)F)cccc23)c1` [Example 62, [3-({3-[3-benzyl-8-(trifluoromethyl)quinolin-4-yl]benzyl}oxy)-4-methylphenyl]acetic acid] was run?
A: The Binding ratio a/b was 5.

Q: What about the IC50 [1] of the same compound?
A: Its IC50 is 0.027 µM.

Q: And the IC50 [2]?
A: Its IC50 is 0.125 µM.

Q: Which results are given for `Cn1c(C(=O)O)cc2cc(NCc3cccc(-c4c(Cc5ccccc5)cnc5c(C(F)(F)F)cccc45)c3)ccc21` [Example 63, 5-({3-[3-benzyl-8-(trifluoromethyl)quinolin-4-yl]benzyl}amino)-1-methyl-1H-indole-2-carboxylic acid]?
A: Binding ratio a/b [1]: 5; IC50 [1]: 0.332 µM; IC50 [2]: 1.53 µM

Q: What does the source list for `Cc1cc(NCc2cscc2-c2c(Cc3ccccc3)cnc3c(C(F)(F)F)cccc23)c(C)cc1CC(=O)O` [Example 64, {4-[({4-[3-benzyl-8-(trifluoromethyl)quinolin-4-yl]-3-thienyl}methyl)amino]-2,5-dimethylphenyl}acetic acid]?
A: Binding ratio a/b [1]: 4; IC50 [1]: 0.813 µM; IC50 [2]: 3.52 µM

Q: Which results are given for `O=C(O)Cc1ccc(NCc2cccc(-c3ccnc4c(C(F)(F)F)cccc34)c2)c2ccccc12` [Example 65, [4-({3-[8-(trifluoromethyl)quinolin-4-yl]benzyl}amino)-1-naphthyl]acetic acid]?
A: Binding ratio a/b [1]: 4; IC50 [1]: 2.05 µM; IC50 [2]: 8.83 µM

Q: For `C#CCC(C(=O)O)c1cccc2c(OCc3cccc(-c4ccnc5c(C(F)(F)F)cccc45)c3)cccc12` (stereo not drawn) [Example 66, 2-[5-({3-[8-(trifluoromethyl)quinolin-4-yl]benzyl}oxy)-1-naphthyl]pent-4-ynoic acid], which Binding ratio a/b [1] is on record?
A: Its Binding ratio a/b is 4.

Q: What about the IC50 [1] of the same compound?
A: Its IC50 is 0.454 µM.

Q: And the IC50 [2]?
A: Its IC50 is 1.95 µM.

Q: Which results are given for `O=C(O)c1cc(Cl)c(OCc2cccc(-c3c(Cc4ccccc4)cnc4c(C(F)(F)F)cccc34)c2)c(Cl)c1` [Example 67, 4-({3-[3-benzyl-8-(trifluoromethyl)quinolin-4-yl]benzyl}oxy)-3,5-dichlorobenzoic acid]?
A: Binding ratio a/b [1]: 4; IC50 [1]: 0.047 µM; IC50 [2]: 0.203 µM

Q: For `O=C(O)Cc1cccc2cc(OCc3cccc(-c4ccnc5c(C(F)(F)F)cccc45)c3)ccc12` [Example 68, [6-({3-[8-(trifluoromethyl)quinolin-4-yl]benzyl}oxy)-1-naphthyl]acetic acid], which Binding ratio a/b [1] is on record?
A: Its Binding ratio a/b is 4.

Q: And the IC50 [1]?
A: Its IC50 is 0.535 µM.

Q: And the IC50 [2]?
A: Its IC50 is 2.29 µM.

Q: Which Binding ratio a/b [1] does the source give for `O=C(O)Cc1ccc2c(OCc3cccc(-c4c(Cc5ccccc5)cnc5c(C(F)(F)F)cccc45)c3)cccc2c1` [Example 69, [5-({3-[3-benzyl-8-(trifluoromethyl)quinolin-4-yl]benzyl}oxy)-2-naphthyl]acetic acid] here?
A: Its Binding ratio a/b is 4.

Q: What about the IC50 [1] of the same compound?
A: Its IC50 is 0.071 µM.

Q: And the IC50 [2]?
A: The IC50 was 0.276 µM.

Q: `Cc1cc(NCc2cc(-c3c(Cc4ccccc4)cnc4c(C(F)(F)F)cccc34)cs2)c(C)cc1CC(=O)O` [Example 70, {4-[({4-[3-benzyl-8-(trifluoromethyl)quinolin-4-yl]-2-thienyl}methyl)amino]-2,5-dimethylphenyl}acetic acid] was tested. Which Binding ratio a/b [1] did it give?
A: Its Binding ratio a/b is 4.

Q: What about the IC50 [1] of the same compound?
A: Its IC50 is 0.002 µM.

Q: And the IC50 [2]?
A: The IC50 was 0.007 µM.

Q: How did the Binding ratio a/b [1] turn out when `Cc1ccc(NCc2cccc(-c3c(Cc4ccccc4)cnc4c(C(F)(F)F)cccc34)c2)c(C(=O)O)c1` [Example 71, 2-({3-[3-benzyl-8-(trifluoromethyl)quinolin-4-yl]benzyl}amino)-5-methylbenzoic acid] was run?
A: Its Binding ratio a/b is 4.

Q: And the IC50 [1]?
A: The IC50 was 0.558 µM.

Q: And the IC50 [2]?
A: The IC50 was 2.06 µM.

Q: What does the source list for `O=C(N[C@@H](Cc1c[nH]cn1)C(=O)O)c1cccc(COc2cccc(-c3c(Cc4ccccc4)cnc4c(C(F)(F)F)cccc34)c2)c1` [Example 72, N-[3-({3-[3-benzyl-8-(trifluoromethyl)quinolin-4-yl]phenoxy}methyl)benzoyl]histidine]?
A: Binding ratio a/b [1]: 4; IC50 [1]: 0.309 µM; IC50 [2]: 1.1 µM

Q: Which Binding ratio a/b [1] does the source give for `Cc1cnc2c(C(F)(F)F)cccc2c1-c1cccc(CNc2ccc(C(=O)O)c(Cl)c2)c1` [Example 73, 2-chloro-4-({3-[3-methyl-8-(trifluoromethyl)quinolin-4-yl]benzyl}amino)benzoic acid] here?
A: The Binding ratio a/b was 3.

Q: What about the IC50 [1] of the same compound?
A: Its IC50 is 0.183 µM.

Q: What about the IC50 [2] of the same compound?
A: Its IC50 is 0.613 µM.

Q: `Cc1cc(NCc2cccc(-c3c(Cc4ccccc4)cnc4c(C(F)(F)F)cccc34)c2)ccc1C(=O)O` [Example 75, 4-({3-[3-benzyl-8-(trifluoromethyl)quinolin-4-yl]benzyl}amino)-2-methylbenzoic acid] was tested. Which Binding ratio a/b [1] did it give?
A: The Binding ratio a/b was 3.

Q: What about the IC50 [1] of the same compound?
A: Its IC50 is 0.025 µM.

Q: And the IC50 [2]?
A: The IC50 was 0.08 µM.

Q: Which Binding ratio a/b [1] does the source give for `CSCC[C@H](NC(=O)c1cccc(COc2cccc(-c3c(Cc4ccccc4)cnc4c(C(F)(F)F)cccc34)c2)c1)C(=O)O` [Example 76, N-[3-({3-[3-benzyl-8-(trifluoromethyl)quinolin-4-yl]phenoxy}methyl)benzoyl]methionine] here?
A: Its Binding ratio a/b is 3.

Q: And the IC50 [1]?
A: The IC50 was 0.318 µM.

Q: What about the IC50 [2] of the same compound?
A: Its IC50 is 0.983 µM.

Q: With `O=C(O)c1cc2cccc(NCc3cccc(-c4c(Cc5ccccc5)cnc5c(C(F)(F)F)cccc45)c3)c2[nH]1` [Example 77, 7-({3-[3-benzyl-8-(trifluoromethyl)quinolin-4-yl]benzyl}amino)-1H-indole-2-carboxylic acid] as the compound, how does the Binding ratio a/b [1] read?
A: Its Binding ratio a/b is 3.

Q: What about the IC50 [1] of the same compound?
A: The IC50 was 0.408 µM.

Q: What about the IC50 [2] of the same compound?
A: Its IC50 is 1.25 µM.

Q: Which Binding ratio a/b [1] does the source give for `O=C(O)c1cc2ccccc2cc1NCc1cccc(-c2c(Cc3ccccc3)cnc3c(C(F)(F)F)cccc23)c1` [Example 78, 3-({3-[3-benzyl-8-(trifluoromethyl)quinolin-4-yl]benzyl}amino)-2-naphthoic acid] here?
A: The Binding ratio a/b was 3.

Q: What about the IC50 [1] of the same compound?
A: The IC50 was 0.666 µM.

Q: What about the IC50 [2] of the same compound?
A: Its IC50 is 1.99 µM.

Q: `Cn1cc(C(=O)O)c2cc(NCc3cccc(-c4c(Cc5ccccc5)cnc5c(C(F)(F)F)cccc45)c3)ccc21` [Example 79, 5-({3-[3-benzyl-8-(trifluoromethyl)quinolin-4-yl]benzyl}amino)-1-methyl-1H-indole-3-carboxylic acid] was tested. Which Binding ratio a/b [1] did it give?
A: The Binding ratio a/b was 3.

Q: What about the IC50 [1] of the same compound?
A: Its IC50 is 0.629 µM.

Q: And the IC50 [2]?
A: The IC50 was 1.82 µM.

Q: Which Binding ratio a/b [1] does the source give for `Cc1cnc2c(C(F)(F)F)cccc2c1-c1cccc(CNc2cccc3c(C(=O)O)cccc23)c1` [Example 80, 5-({3-[3-methyl-8-(trifluoromethyl)quinolin-4-yl]benzyl}amino)-1-naphthoic acid] here?
A: Its Binding ratio a/b is 3.

Q: What about the IC50 [1] of the same compound?
A: Its IC50 is 0.129 µM.

Q: What about the IC50 [2] of the same compound?
A: The IC50 was 0.374 µM.

Q: `CC(C)C[C@H](NC(=O)c1ccc(COc2cccc(-c3c(Cc4ccccc4)cnc4c(C(F)(F)F)cccc34)c2)cc1)C(=O)O` [Example 81, N-[4-({3-[3-benzyl-8-(trifluoromethyl)quinolin-4-yl]phenoxy}methyl)benzoyl]leucine] was tested. Which Binding ratio a/b [1] did it give?
A: Its Binding ratio a/b is 3.

Q: What about the IC50 [1] of the same compound?
A: Its IC50 is 0.236 µM.

Q: And the IC50 [2]?
A: The IC50 was 0.654 µM.

Q: Which Binding ratio a/b [1] does the source give for `O=C(O)c1cc(NCc2cccc(-c3c(Cc4ccccc4)cnc4c(C(F)(F)F)cccc34)c2)ccc1Cl` [Example 82, 5-({3-[3-benzyl-8-(trifluoromethyl)quinolin-4-yl]benzyl}amino)-2-chlorobenzoic acid] here?
A: Its Binding ratio a/b is 3.

Q: And the IC50 [1]?
A: The IC50 was 0.523 µM.

Q: What about the IC50 [2] of the same compound?
A: Its IC50 is 1.45 µM.

— patent US20090069373A1, “Quinoline Acids” (Wyeth, priority 2007, published 2009)
